Assay results reported in patent publication US10968236B2, “TYK2 inhibitors and uses thereof” (Nimbus Lakshmi, Inc., priority 2015, dated 2021).

How the values were obtained:
TYK2 = TYK2 (Homo sapiens (Human), UniProt P29597); assay: Tyk2 activity inhibition assay (radioactive kinase / Caliper assay); assay type: biochemical
Protocol: (§1) Peptide substrate, [KKSRGDYMTMQIG], (20 μM) is prepared in reaction buffer (20 mM Hepes pH 7.5, 10 mM MgCl2, 1 mM EGTA, 0.02% Brij35, 0.02 mg/mL BSA, 0.1 mM […], 2 mM DTT, 1% DMSO. TYK2 (Invitrogen) kinase is added, followed by compounds in DMSO. 33PATP is added to initiate the reaction in ATP at 10 μM. Kinase reaction is incubated for 120 min at room temp and reactions are spotted onto P81 ion exchange paper (Whatman #3698-915), and then washed extensively in 0.75% phosphoric acid, prior to reading the radioactivity counts. For JAK2 (Invitrogen) kinase assay the peptide substrate poly[Glu:Tyr] (4:1), 0.2 mg/ml is used, in the reaction carried out the same as for TYK2.
(§2) The caliper machine employs an off chip mobility shift assay to detect phosphorylated peptide substrates from kinase assays, using microfluidics technology. The assays are carried out at ATP concentration equivalent to the ATP Km, and at 1 mM ATP. Compounds are serially diluted in DMSO then further diluted in assay buffer (25 mM HEPES, pH 7.5, 0.01% Brij-35, 0.01% Triton, 0.5 mM EGTA). 5 ul of diluted compound was added into wells first, then 10 ul of enzyme mix was added into wells, followed by 10 uL of substrate mix (peptide and ATP in 10 mM MgCl2) to start reaction. Reaction was incubated at 28° C. for 25 min and then added 25 ul stop buffer (100 mM HEPES, 0.015% Brij-35, 50 mM EDTA), followed by reading with Caliper. JAK2 at 1 nM final concentration and TYK2 at 9.75 nM are from Carna, and substrates used are ATP at 20 and 16 uM, respectively. JAK2 assay uses peptide 22 and TYK2 uses peptide 30 (Caliper), each at 3 uM.
(§3) The compound numbers correspond to the compound numbers in Table 1. Compounds having an activity designated as “A” provided an Ki≤0.01 μM; compounds having an activity designated as “B” provided an Ki of 0.01-0.1 μM; compounds having an activity designated as “C” provided an Ki of 0.1-1.0 μM; and compounds having an activity designated as “D” provided an Ki≥1.0 μM.

JAK2 = JAK2 (Homo sapiens (Human), UniProt O60674); assay: JAK2 activity inhibition assay (radioactive kinase / Caliper assay); assay type: biochemical
Chain of JAK2 (O60674 whole entry): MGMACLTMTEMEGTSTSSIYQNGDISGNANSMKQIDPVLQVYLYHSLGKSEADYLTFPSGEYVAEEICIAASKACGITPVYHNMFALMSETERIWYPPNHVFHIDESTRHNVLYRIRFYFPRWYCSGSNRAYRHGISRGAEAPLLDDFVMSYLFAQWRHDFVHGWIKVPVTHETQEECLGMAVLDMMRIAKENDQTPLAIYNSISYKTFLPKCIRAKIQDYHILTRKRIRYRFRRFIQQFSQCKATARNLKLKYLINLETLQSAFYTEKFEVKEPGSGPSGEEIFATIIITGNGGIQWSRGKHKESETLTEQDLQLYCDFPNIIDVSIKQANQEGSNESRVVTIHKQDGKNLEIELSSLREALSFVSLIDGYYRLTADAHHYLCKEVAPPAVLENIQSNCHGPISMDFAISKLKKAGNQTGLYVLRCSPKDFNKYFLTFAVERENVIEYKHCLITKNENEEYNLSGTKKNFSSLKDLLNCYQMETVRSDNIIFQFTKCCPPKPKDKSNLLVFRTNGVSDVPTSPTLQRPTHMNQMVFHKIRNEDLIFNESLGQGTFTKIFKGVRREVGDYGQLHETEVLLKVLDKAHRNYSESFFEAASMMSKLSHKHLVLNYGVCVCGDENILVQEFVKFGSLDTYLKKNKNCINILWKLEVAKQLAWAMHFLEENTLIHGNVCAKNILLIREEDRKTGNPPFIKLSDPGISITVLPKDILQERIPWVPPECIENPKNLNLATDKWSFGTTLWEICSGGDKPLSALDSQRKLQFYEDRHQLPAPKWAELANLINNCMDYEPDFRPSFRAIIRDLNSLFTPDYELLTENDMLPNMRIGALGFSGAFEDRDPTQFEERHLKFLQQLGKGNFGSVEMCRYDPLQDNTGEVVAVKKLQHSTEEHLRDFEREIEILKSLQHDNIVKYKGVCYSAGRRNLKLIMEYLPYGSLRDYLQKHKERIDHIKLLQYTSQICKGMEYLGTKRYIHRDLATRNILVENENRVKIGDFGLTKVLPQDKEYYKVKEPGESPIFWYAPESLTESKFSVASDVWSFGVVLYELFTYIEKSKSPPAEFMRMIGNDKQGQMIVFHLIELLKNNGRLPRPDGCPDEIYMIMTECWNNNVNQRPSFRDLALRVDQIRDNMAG
Protocol: as §1, §2, §3

Chain of TYK2 (P29597 whole entry): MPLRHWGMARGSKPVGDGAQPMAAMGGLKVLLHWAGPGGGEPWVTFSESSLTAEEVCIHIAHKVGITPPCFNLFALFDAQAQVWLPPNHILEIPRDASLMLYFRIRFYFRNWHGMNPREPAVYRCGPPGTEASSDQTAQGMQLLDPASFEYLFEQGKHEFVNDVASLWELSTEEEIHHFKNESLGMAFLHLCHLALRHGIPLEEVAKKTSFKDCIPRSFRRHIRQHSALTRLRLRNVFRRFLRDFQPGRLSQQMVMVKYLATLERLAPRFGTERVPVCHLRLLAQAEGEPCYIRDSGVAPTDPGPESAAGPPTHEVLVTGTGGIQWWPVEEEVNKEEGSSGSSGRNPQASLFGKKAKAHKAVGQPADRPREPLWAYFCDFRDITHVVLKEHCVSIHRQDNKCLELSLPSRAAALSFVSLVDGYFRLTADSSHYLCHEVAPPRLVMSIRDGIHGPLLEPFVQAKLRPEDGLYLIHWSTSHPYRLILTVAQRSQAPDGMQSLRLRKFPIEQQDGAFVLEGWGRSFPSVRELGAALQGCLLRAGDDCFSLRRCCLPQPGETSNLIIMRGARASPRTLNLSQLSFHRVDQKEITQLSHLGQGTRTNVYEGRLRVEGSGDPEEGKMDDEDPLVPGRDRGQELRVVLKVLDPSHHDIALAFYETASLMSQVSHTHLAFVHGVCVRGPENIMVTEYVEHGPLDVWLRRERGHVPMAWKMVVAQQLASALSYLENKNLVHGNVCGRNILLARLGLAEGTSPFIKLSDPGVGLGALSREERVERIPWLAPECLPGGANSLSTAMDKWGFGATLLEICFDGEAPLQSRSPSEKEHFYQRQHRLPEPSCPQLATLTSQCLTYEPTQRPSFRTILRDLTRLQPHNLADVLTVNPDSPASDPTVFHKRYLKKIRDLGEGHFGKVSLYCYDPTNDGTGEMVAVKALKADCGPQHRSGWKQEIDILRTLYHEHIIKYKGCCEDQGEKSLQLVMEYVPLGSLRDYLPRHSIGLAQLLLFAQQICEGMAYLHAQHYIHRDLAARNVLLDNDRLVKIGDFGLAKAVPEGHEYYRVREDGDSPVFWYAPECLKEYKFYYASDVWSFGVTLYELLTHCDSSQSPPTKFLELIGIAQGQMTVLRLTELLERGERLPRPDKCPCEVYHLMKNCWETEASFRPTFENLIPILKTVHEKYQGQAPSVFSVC

| SMILES | Ki (TYK2) [nM] | Ki (JAK2) [nM] |
| --- | --- | --- |
| CC1(C)Cc2ccc(Nc3nc(-c4c(F)cccc4F)nc4c3C(=O)NC4)cc2N1 [Compound I-3, 2-(2,6-difluorophenyl)-4-((2,2-dimethylindolin-6-yl)amino)-6,7-dihydro-5H-pyrrolo[3,4-d]pyrimidin-5-one] | ≤ 10 | 100 to 1000 |
| O=C1NCc2nc(-c3c(F)cccc3F)nc(Nc3ccc(C(=O)N4CC5CCC(C4)O5)cc3)c21 [Compound I-5, 4-((4-(8-oxa-3-azabicyclo[3.2.1]octane-3-carbonyl)phenyl)-amino)-2-(2,6-difluorophenyl)-6,7-dihydro-5H-pyrrolo[3,4-d]pyrimidin-5-one] | ≤ 10 | 100 to 1000 |
| CC(O)(C(=O)O)c1ccc(Nc2nc(-c3c(F)cccc3F)nc3c2C(=O)NC3)cc1 (stereo not drawn) [Compound I-6, 2-(4-((2-(2,6-difluorophenyl)-5-oxo-6,7-dihydro-5H-pyrrolo-[3,4-d]pyrimidin-4-yl)amino)phenyl)-2-hydroxypropanoic acid] | ≤ 10 | 100 to 1000 |
| C[C@@](O)(C(=O)O)c1ccc(Nc2nc(-c3c(F)cccc3F)nc3c2C(=O)NC3)cc1 [Compound I-7, (S)-2-(4-((2-(2,6-difluorophenyl)-5-oxo-6,7-dihydro-5H-pyrrolo[3,4-d]pyrimidin-4-yl)amino)phenyl)-2-hydroxypropanoic acid] | ≤ 10 | 100 to 1000 |
| C[C@](O)(C(=O)O)c1ccc(Nc2nc(-c3c(F)cccc3F)nc3c2C(=O)NC3)cc1 [Compound I-8, (R)-2-(4-((2-(2,6-difluorophenyl)-5-oxo-6,7-dihydro-5H-pyrrolo[3,4-d]pyrimidin-4-yl)amino)phenyl)-2-hydroxypropanoic acid] | ≤ 10 | 100 to 1000 |
| CCNC(=O)C(C)(N)c1ccc(Nc2nc(-c3c(F)cccc3F)nc3c2C(=O)NC3)cc1 (stereo not drawn) [Compound I-9, 2-amino-2-(4-((2-(2,6-difluorophenyl)-5-oxo-6,7-dihydro-5H-pyrrolo[3,4-d]pyrimidin-4-yl)amino)phenyl)-N-ethylpropanamide] | 10 to 100 | 10 to 100 |
| O=C1NCc2nc(-c3c(F)cccc3F)nc(Nc3ccc(OC(CO)CO)cc3)c21 [Compound I-12, 2-(2,6-difluorophenyl)-4-((4-((1,3-dihydroxypropan-2-yl)oxy)phenyl)amino)-6,7-dihydro-5H-pyrrolo[3,4-d]pyrimidin-5-one] | ≤ 10 | 100 to 1000 |
| COc1ccc(CNc2nc(-c3c(F)cccc3F)nc3c2C(=O)NC3)cc1 [Compound I-13, 2-(2,6-difluorophenyl)-4-((4-methoxybenzyl)-amino)-6,7-dihydro-5H-pyrrolo[3,4-d]pyrimidin-5-one] | 10 to 100 | 100 to 1000 |
| CCNC(=O)C(C)(O)c1ccc(Nc2nc(-c3c(F)cccc3F)nc3c2C(=O)NC3)cc1 (stereo not drawn) [Compound I-14, 2-(4-((2-(2,6-difluorophenyl)-5-oxo-6,7-dihydro-5H-pyrrolo[3,4-d]pyrimidin-4-yl)amino)phenyl)-N-ethyl-2-hydroxypropanamide] | ≤ 10 | 100 to 1000 |
| CCNC(=O)[C@](C)(O)c1ccc(Nc2nc(-c3c(F)cccc3F)nc3c2C(=O)NC3)cc1 [Compound I-16, (R)-2-(4-((2-(2,6-difluorophenyl)-5-oxo-6,7-dihydro-5H-pyrrolo[3,4-d]pyrimidin-4-yl)amino)phenyl)-N-ethyl-2-hydroxypropanamide] | ≤ 10 | 100 to 1000 |
| Nc1ccc2ccn(-c3cc(-c4c(F)cccc4F)nc4c3C(=O)NC4)c2n1 [Compound I-19, 4-(6-amino-1H-pyrrolo[2,3-b]pyridin-1-yl)-2-(2,6-difluorophenyl)-6,7-dihydro-5H-pyrrolo[3,4-b]pyridin-5-one] | 10 to 100 | ≥ 1000 |
| O=C1NCc2nc(-c3c(F)cccc3F)cc(Nc3ccc4cc[nH]c4n3)c21 [Compound I-21, 4-((1H-pyrrolo[2,3-b]pyridin-6-yl)amino)-2-(2,6-difluoro-phenyl)-6,7-dihydro-5H-pyrrolo[3,4-b]pyridin-5-one] | ≤ 10 | 10 to 100 |
| O=C1NCc2nc(-c3c(F)cccc3F)cc(Nc3ccc4c(n3)NCC4)c21 [Compound I-22, 2-(2,6-difluorophenyl)-4-((2,3-dihydro-1H-pyrrolo[2,3-b]pyridin-6-yl)amino)-6,7-dihydro-5H-pyrrolo[3,4-b]pyridin-5-one] | ≤ 10 | 10 to 100 |
| CC1(C)COc2cc(Nc3nc(-c4c(F)cccc4F)nc4c3C(=O)NC4)ccc21 [Compound I-23, 2-(2,6-difluorophenyl)-4-((3,3-dimethyl-2,3-dihydrobenzofuran-6-yl)amino)-6,7-dihydro-5H-pyrrolo[3,4-d]pyrimidin-5-one] | ≤ 10 | 100 to 1000 |
| CCNC(=O)[C@](O)(CC(F)(F)F)c1ccc(Nc2nc(-c3c(F)cccc3F)nc3c2C(=O)NC3)cc1 [Compound I-27, (S)-2-(4-((2-(2,6-difluorophenyl)-5-oxo-6,7-dihydro-5H-pyrrolo[3,4-d]pyrimidin-4-yl)amino)phenyl)-N-ethyl-4,4,4-trifluoro-2-hydroxybutanamide] | – | 10 to 100 |
| CCNC(=O)[C@@](O)(CC(F)(F)F)c1ccc(Nc2nc(-c3c(F)cccc3F)nc3c2C(=O)NC3)cc1 [Compound I-28, (R)-2-(4-((2-(2,6-difluorophenyl)-5-oxo-6,7-dihydro-5H-pyrrolo[3,4-d]pyrimidin-4-yl)amino)phenyl)-N-ethyl-4,4,4-trifluoro-2-hydroxybutanamide] | – | 100 to 1000 |
| O=C1NCc2nc(-c3c(F)cccc3F)nc(Nc3ccc([C@H](O)C(F)(F)F)cc3)c21 [Compound I-30, (S)-2-(2,6-difluorophenyl)-4-((4-(2,2,2-trifluoro-1-hydroxyethyl)phenyl)amino)-6,7-dihydro-5H-pyrrolo[3,4-d]pyrimidin-5-one] | – | 100 to 1000 |
| O=C1NCc2nc(-c3c(F)cccc3F)nc(Nc3ccc([C@@H](O)C(F)(F)F)cc3)c21 [Compound I-31, (R)-2-(2,6-difluorophenyl)-4-((4-(2,2,2-trifluoro-1-hydro-xyethyl)phenyl)amino)-6,7-dihydro-5H-pyrrolo[3,4-d]pyrimidin-5-one] | – | 10 to 100 |
| C[C@@](O)(c1ccc(Nc2nc(-c3c(F)cccc3F)nc3c2C(=O)NC3)cc1)C(F)(F)F [Compound I-35, (R)-2-(2,6-difluorophenyl)-4-((4-(1,1,1-trifluoro-2-hydroxy-propan-2-yl)phenyl)amino)-6,7-dihydro-5H-pyrrolo[3,4-d]pyrimidin-5-one] | – | 100 to 1000 |
| CN1C(=O)[C@](C)(c2ccc(Nc3nc(-c4c(F)cccc4F)nc4c3C(=O)NC4)cc2)Oc2ccccc21 [Compound I-40, (S)-2-(4-((2-(2,6-difluorophenyl)-5-oxo-6,7-dihydro-5H-pyrrolo[3,4-d]pyrimidin-4-yl)amino)phenyl)-2,4-dimethyl-2H-benzo[b][1,4]oxazin-3(4H)-one] | 100 to 1000 | – |
| C[C@](O)(c1ccc(Nc2cc(-c3c(F)cccc3F)nc3c2C(=O)NC3)cc1)C(F)(F)F [Compound I-43, (S)-2-(2,6-difluorophenyl)-4-((4-(1,1,1-trifluoro-2-hydroxypropan-2-yl)phenyl)amino)-6,7-dihydro-5H-pyrrolo[3,4-b]pyridin-5-one] | – | 10 to 100 |
| C[C@@](O)(c1ccc(Nc2cc(-c3c(F)cccc3F)nc3c2C(=O)NC3)cc1)C(F)(F)F [Compound I-44, (R)-2-(2,6-difluorophenyl)-4-((4-(1,1,1-trifluoro-2-hydroxy-nronan-2-yl)phenyl)amino)-6,7-dihydro-5H-pyrrolo[3,4-b]pyridin-5-one] | – | 100 to 1000 |
